Tests used:
Format in all cases: in vivo
soybean (Glycine max) = experiment: Test E pre-/postemergence greenhouse test, plant response rating 0-100; conditions: scale 0 to 100; for Soybean plant response rating: Preemergence
Outline: (§1)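 Visual control score, 0–100 relative to untreated plants, recorded 14–21 days after spraying. Treatments: preemergence on silt loam seedbeds and postemergence at the 1- to 4-leaf stage, with compound in surfactant-containing solvent.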

[1] = test system: fall panicum (Panicum dichotomiflorum); experiment: as above; conditions: scale 0 to 100; for Panicum, Fall plant response rating: Preemergence
Outline: as §1

[2] = test system: windgrass (Apera spica-venti); experiment: Test C postemergence greenhouse test, plant response rating 0-100
Outline: (§2)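 Response is a visual 0–100 control rating taken 13 to 15 days post-treatment, with a dash marking no result. Plants ranged 2 to 18 cm when treated postemergence.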

[3] = test system: goosegrass (Eleusine indica); experiment: as above
Outline: as §2

[4] = test system: woolly cupgrass (Eriochloa villosa); experiment: as above
Outline: as §2

[5] = test system: canarygrass (Phalaris minor); experiment: as above
Outline: as §2

[6] = test system: winter barley (Hordeum vulgare); experiment: as above
Outline: as §2

[7] = test system: downy bromegrass (Bromus tectorum); experiment: as above
Outline: as §2

[8] = test system: deadnettle (henbit deadnettle, Lamium amplexicaule); experiment: as above
Outline: as §2

[9] = test system: green foxtail (Setaria viridis); experiment: as above
Outline: as §2

Clc1cc(Cl)cc(-c2n[nH]cc2C(=NN2CCCC2)c2ccccc2)c1 [Compound 30, N-[[3-(3,5-dichlorophenyl)-1H-pyrazol-4-yl]phenylmethylene]-1-pyrrolidinamine]
plant injury at 31 g/ha (soybean (Glycine max); Glycine max, post-emergence, Postemergence, 31 g ai/ha): 0%
plant injury at 62 g/ha (soybean (Glycine max); Glycine max, post-emergence, Postemergence, 62 g ai/ha): 0%
plant injury at 125 g/ha (soybean (Glycine max); Glycine max, post-emergence, Postemergence, 125 g ai/ha): 0%
plant injury at 250 g/ha (soybean (Glycine max); Glycine max, post-emergence, Postemergence, 250 g ai/ha): 0%
pest or weed control at 31 g/ha ([1]; Panicum dichotomiflorum, post-emergence, Postemergence, 31 g ai/ha): 0%
pest or weed control at 62 g/ha ([1]; Panicum dichotomiflorum, post-emergence, Postemergence, 62 g ai/ha): 0%
pest or weed control at 125 g/ha ([1]; Panicum dichotomiflorum, post-emergence, Postemergence, 125 g ai/ha): 0%
pest or weed control at 250 g/ha ([1]; Panicum dichotomiflorum, post-emergence, Postemergence, 250 g ai/ha): 0%
Plant response rating (0 to 100), Windgrass ([2]; 62 g ai/ha): 0
Plant response rating (0 to 100), Windgrass ([2]; 125 g ai/ha): 0
Plant response rating, Windgrass ([2]; 250 g ai/ha, scale 0 to 100): 0
Plant response rating (0 to 100), Goosegrass ([3]; 31 g ai/ha): 0
Plant response rating (0 to 100), Goosegrass ([3]; 62 g ai/ha): 0
Plant response rating (0 to 100), Goosegrass ([3]; 125 g ai/ha): 0
Plant response rating, Goosegrass ([3]; 250 g ai/ha, scale 0 to 100): 0
Plant response rating (0 to 100), Cupgrass, Woolly ([4]; 31 g ai/ha): 0
Plant response rating (0 to 100), Cupgrass, Woolly ([4]; 62 g ai/ha): 0
Plant response rating (0 to 100), Cupgrass, Woolly ([4]; 125 g ai/ha): 0
Plant response rating, Cupgrass, Woolly ([4]; 250 g ai/ha, scale 0 to 100): 0
Plant response rating (0 to 100), Canarygrass ([5]; 31 g ai/ha): 0
Plant response rating (0 to 100), Canarygrass ([5]; 62 g ai/ha): 0
Plant response rating (0 to 100), Canarygrass ([5]; 125 g ai/ha): 0
Plant response rating, Canarygrass ([5]; 250 g ai/ha, scale 0 to 100): 0
Plant response rating (0 to 100), Barley ([6]; 31 g ai/ha): 0
Plant response rating (0 to 100), Barley ([6]; 62 g ai/ha): 0
Plant response rating, Barley ([6]; 125 g ai/ha, scale 0 to 100): 0
Plant response rating, Barley ([6]; 250 g ai/ha, scale 0 to 100): 0
Plant response rating (0 to 100), Bromegrass, Downy ([7]; 31 g ai/ha): 0
Plant response rating (0 to 100), Bromegrass, Downy ([7]; 62 g ai/ha): 0
Plant response rating, Bromegrass, Downy ([7]; 125 g ai/ha, scale 0 to 100): 0
Plant response rating, Bromegrass, Downy ([7]; 250 g ai/ha, scale 0 to 100): 0
Plant response rating (0 to 100), Deadnettle ([8]; 31 g ai/ha): 0
Plant response rating (0 to 100), Deadnettle ([8]; 62 g ai/ha): 0
Plant response rating (0 to 100), Deadnettle ([8]; 125 g ai/ha): 0
Plant response rating, Deadnettle ([8]; 250 g ai/ha, scale 0 to 100): 0
Plant response rating (0 to 100), Foxtail, Green ([9]; 31 g ai/ha): 0
Plant response rating (0 to 100), Foxtail, Green ([9]; 62 g ai/ha): 0
Plant response rating (0 to 100), Foxtail, Green ([9]; 125 g ai/ha): 0
Plant response rating, Foxtail, Green ([9]; 250 g ai/ha, scale 0 to 100): 0

CCn1cc(C(=O)c2ccccc2)c(-c2cc(Cl)cc(Cl)c2)n1 [Compound 31, [3-(3,5-dichlorophenyl)-1-ethyl-1H-pyrazol-4-yl]phenylmethanone]
Soybean plant response rating (soybean (Glycine max); 62 g ai/ha): 0
Soybean plant response rating (soybean (Glycine max); 125 g ai/ha): 0
Soybean plant response rating (soybean (Glycine max); 250 g ai/ha): 0
Soybean plant response rating (soybean (Glycine max); 500 g ai/ha): 0
Panicum, Fall plant response rating ([1]; 62 g ai/ha): 0
Panicum, Fall plant response rating ([1]; 125 g ai/ha): 0
Plant response rating, Windgrass ([2]; 16 g ai/ha): 0
Plant response rating (0 to 100), Windgrass ([2]; 62 g ai/ha): 0
Plant response rating (0 to 100), Windgrass ([2]; 125 g ai/ha): 0
Plant response rating, Goosegrass ([3]; 16 g ai/ha): 0
Plant response rating (0 to 100), Goosegrass ([3]; 31 g ai/ha): 0
Plant response rating (0 to 100), Goosegrass ([3]; 62 g ai/ha): 0
Plant response rating (0 to 100), Goosegrass ([3]; 125 g ai/ha): 0
Plant response rating, Cupgrass, Woolly ([4]; 16 g ai/ha): 5
Plant response rating (0 to 100), Cupgrass, Woolly ([4]; 31 g ai/ha): 5
Plant response rating (0 to 100), Cupgrass, Woolly ([4]; 62 g ai/ha): 5
Plant response rating (0 to 100), Cupgrass, Woolly ([4]; 125 g ai/ha): 5
Plant response rating, Canarygrass ([5]; 16 g ai/ha): 0
Plant response rating (0 to 100), Canarygrass ([5]; 31 g ai/ha): 0
Plant response rating (0 to 100), Canarygrass ([5]; 62 g ai/ha): 0
Plant response rating (0 to 100), Canarygrass ([5]; 125 g ai/ha): 0
Plant response rating, Barley ([6]; 16 g ai/ha): 0
Plant response rating (0 to 100), Barley ([6]; 31 g ai/ha): 0
Plant response rating (0 to 100), Barley ([6]; 62 g ai/ha): 0
Plant response rating (0 to 100), Barley ([6]; 125 g ai/ha): 0
Plant response rating, Bromegrass, Downy ([7]; 16 g ai/ha): 0
Plant response rating (0 to 100), Bromegrass, Downy ([7]; 31 g ai/ha): 0
Plant response rating (0 to 100), Bromegrass, Downy ([7]; 62 g ai/ha): 0
Plant response rating (0 to 100), Bromegrass, Downy ([7]; 125 g ai/ha): 0
Plant response rating, Deadnettle ([8]; 16 g ai/ha): 0
Plant response rating (0 to 100), Deadnettle ([8]; 31 g ai/ha): 0
Plant response rating (0 to 100), Deadnettle ([8]; 62 g ai/ha): 0
Plant response rating (0 to 100), Deadnettle ([8]; 125 g ai/ha): 10
Plant response rating, Foxtail, Green ([9]; 16 g ai/ha): 0
Plant response rating (0 to 100), Foxtail, Green ([9]; 31 g ai/ha): 0
Plant response rating (0 to 100), Foxtail, Green ([9]; 62 g ai/ha): 0
Plant response rating (0 to 100), Foxtail, Green ([9]; 125 g ai/ha): 0

CCn1cc(C(=NN2CCCC2)c2ccccc2)c(-c2cc(Cl)cc(Cl)c2)n1 [Compound 37]
Plant response rating (0 to 100), Windgrass ([2]; 62 g ai/ha): 0
Plant response rating (0 to 100), Windgrass ([2]; 125 g ai/ha): 0
Plant response rating, Windgrass ([2]; 250 g ai/ha, scale 0 to 100): 0
Plant response rating (0 to 100), Goosegrass ([3]; 31 g ai/ha): 0
Plant response rating (0 to 100), Goosegrass ([3]; 62 g ai/ha): 0
Plant response rating (0 to 100), Goosegrass ([3]; 125 g ai/ha): 0
Plant response rating, Goosegrass ([3]; 250 g ai/ha, scale 0 to 100): 0
Plant response rating (0 to 100), Cupgrass, Woolly ([4]; 31 g ai/ha): 5
Plant response rating (0 to 100), Cupgrass, Woolly ([4]; 62 g ai/ha): 5
Plant response rating (0 to 100), Cupgrass, Woolly ([4]; 125 g ai/ha): 5
Plant response rating, Cupgrass, Woolly ([4]; 250 g ai/ha, scale 0 to 100): 5
Plant response rating (0 to 100), Canarygrass ([5]; 31 g ai/ha): 0
Plant response rating (0 to 100), Canarygrass ([5]; 62 g ai/ha): 0
Plant response rating (0 to 100), Canarygrass ([5]; 125 g ai/ha): 0
Plant response rating, Canarygrass ([5]; 250 g ai/ha, scale 0 to 100): 0
Plant response rating (0 to 100), Barley ([6]; 31 g ai/ha): 0
Plant response rating (0 to 100), Barley ([6]; 62 g ai/ha): 0
Plant response rating (0 to 100), Barley ([6]; 125 g ai/ha): 0
Plant response rating, Barley ([6]; 250 g ai/ha, scale 0 to 100): 0
Plant response rating (0 to 100), Bromegrass, Downy ([7]; 31 g ai/ha): 0
Plant response rating (0 to 100), Bromegrass, Downy ([7]; 62 g ai/ha): 0
Plant response rating (0 to 100), Bromegrass, Downy ([7]; 125 g ai/ha): 0
Plant response rating, Bromegrass, Downy ([7]; 250 g ai/ha, scale 0 to 100): 0
Plant response rating (0 to 100), Deadnettle ([8]; 31 g ai/ha): 0
Plant response rating (0 to 100), Deadnettle ([8]; 62 g ai/ha): 0
Plant response rating (0 to 100), Deadnettle ([8]; 125 g ai/ha): 0
Plant response rating, Deadnettle ([8]; 250 g ai/ha, scale 0 to 100): 0
Plant response rating (0 to 100), Foxtail, Green ([9]; 31 g ai/ha): 0
Plant response rating (0 to 100), Foxtail, Green ([9]; 62 g ai/ha): 0
Plant response rating (0 to 100), Foxtail, Green ([9]; 125 g ai/ha): 0
Plant response rating, Foxtail, Green ([9]; 250 g ai/ha, scale 0 to 100): 0

From patent US10167262B2, “Herbicidal substituted 3-arylpyrazoles” (FMC CORPORATION, priority 2014, dated 2019)
